According to patent US11434267B2, “Peptides having reduced toxicity that stimulate cholesterol efflux” (The Regents of the University of California, priority 2013, dated 2022):
Non-standard residues stand in square brackets, D forms with d. No end group written: not given here. Cit = NC(=O)NCCC[C@H](N)C(=O)O

tested on: C57Bl/6 mice; experiment: Glucose tolerance test in fasted C57Bl/6 mice after single IP peptide injection; assay type: in vivo, mouse; conditions: single IP 300 mg/kg, 2 g/kg glucose IP
Procedure: Peptide may additionally be screened for the ability to lower glucose using methods illustrated in the EXAMPLES section, e.g., Example 31. For example, the ability to lower glucose can be evaluated using ing animal models, such as mice or rats. Mice, e.g., C57Bl/6 mice, fed a normal lab chow diet are injected IP with a peptide that is undergoing evaluation, e.g., at a does of 300 mg/kg, and the glucose levels in the blood are measured at a time period, e.g. 6 hours, following injection and compared to the levels of blood glucose in a control animal that received PBS. Alternatively, peptides may be screened for the ability to lower glucose as illustrated in Example 36. For example, 300 mg/kg peptide injected IP into to fasted animals and 3 h thereafter a glucose tolerance test is performed by injecting 2 g/kg glucose during which the glucose concentration is followed for 120 minutes. Peptides that have glucose lowering activity show statistically significant lowered glucose relative to controls. Typically, peptides lower glucose by at least 5%, often at least 10% or greater, relative to controls. Peptides may also be evaluated for glucose-lowering activity in animal models of obesity, e.g., DIO mice. Further, peptides may be evaluated for the ability to improve sensitivity to insulin, e.g., as described in Example 31 of the EXAMPLES section.
This example illustrates that CS6253 and T6991-2 lower blood glucose concentrations upon glucose challenge in C57Bl/6 mice (FIG. 51). Fasted male C57Bl/6 mice on chow diet received a single intraperitonel (IP) injection of either vehicle alone or 300 mg/kg of lipid-free peptide, as described for safety studies in FIG. 5. Following treatment, a glucose tolerance test was performed via IP injection of 2 g/kg glucose. Blood was collected from the tail vein at the indicated times and blood glucose measured using a glucometer. Panels A and B— Blood glucose concentrations expressed as mass values over time following glucose challenge, with corresponding area under the curve, respectively. (Bar graph, panel B, bars from left to right are PBS, CS6253, T699102, 2, 4, 5, 6, and 9, respectively) Values are means±SD, n=4 mice per group.

Q: How did the “blood glucose upon glucose challenge” value turn out when “T8212-4: CS6253 analog with combination of leucine and isoleucine residues (L→I) (EV[Cit]SKLEEWIAAL[Cit]ELAEEILARLKS) [Peptide T8212-4]” was run?
A: Its value is “poorly active in lowering blood glucose responses”.

Q: Which “blood glucose upon glucose challenge” value does the source give for “T8212-5: CS6253 analog with combination of leucine and isoleucine residues (L→I) (EV[Cit]SKIEEWIAAL[Cit]ELAEEILARLKS) [Peptide T8212-5]” here?
A: Its value is “poorly active in lowering blood glucose responses”.

Q: For “T8212-6: CS6253 analog with combination of leucine and isoleucine residues (L→I) (EV[Cit]SKIEEWLAAI[Cit]EIAEELLARLKS) [Peptide T8212-6]”, which “blood glucose upon glucose challenge” value is on record?
A: Its value is “poorly active in lowering blood glucose responses”.

Q: With “T8212-2: CS6253 analog with combination of leucine and isoleucine residues (L→I) (EV[Cit]SKLEEWLAAI[Cit]ELAEELLARLKS) [Peptide T8212-2]” as the substance, how does the “blood glucose upon glucose challenge” value read?
A: Its value is “poorly active in lowering blood glucose responses”.

Q: “T8212-9: CS6253 analog with combination of leucine and isoleucine residues (L→I) (EV[Cit]SKIEEWIAAI[Cit]EIAEEIIARLKS) [Peptide T8212-9]” was tested. Which “blood glucose upon glucose challenge” value did it give?
A: The value was “poorly active in lowering blood glucose responses”.

target: T1, ABCA1 (Mus musculus, UniProt P41233); experiment: ABCA1 protein stabilization in J774 macrophages (Western blot); assay type: cell-based; conditions: J774 after cAMP, 6 h chase
T1 construct: treated (18 h) with a cAMP analog to induce ABCA1 protein expression; endogenous in cells; host or cells: J774 macrophages
T1 sequence (P41233 whole entry): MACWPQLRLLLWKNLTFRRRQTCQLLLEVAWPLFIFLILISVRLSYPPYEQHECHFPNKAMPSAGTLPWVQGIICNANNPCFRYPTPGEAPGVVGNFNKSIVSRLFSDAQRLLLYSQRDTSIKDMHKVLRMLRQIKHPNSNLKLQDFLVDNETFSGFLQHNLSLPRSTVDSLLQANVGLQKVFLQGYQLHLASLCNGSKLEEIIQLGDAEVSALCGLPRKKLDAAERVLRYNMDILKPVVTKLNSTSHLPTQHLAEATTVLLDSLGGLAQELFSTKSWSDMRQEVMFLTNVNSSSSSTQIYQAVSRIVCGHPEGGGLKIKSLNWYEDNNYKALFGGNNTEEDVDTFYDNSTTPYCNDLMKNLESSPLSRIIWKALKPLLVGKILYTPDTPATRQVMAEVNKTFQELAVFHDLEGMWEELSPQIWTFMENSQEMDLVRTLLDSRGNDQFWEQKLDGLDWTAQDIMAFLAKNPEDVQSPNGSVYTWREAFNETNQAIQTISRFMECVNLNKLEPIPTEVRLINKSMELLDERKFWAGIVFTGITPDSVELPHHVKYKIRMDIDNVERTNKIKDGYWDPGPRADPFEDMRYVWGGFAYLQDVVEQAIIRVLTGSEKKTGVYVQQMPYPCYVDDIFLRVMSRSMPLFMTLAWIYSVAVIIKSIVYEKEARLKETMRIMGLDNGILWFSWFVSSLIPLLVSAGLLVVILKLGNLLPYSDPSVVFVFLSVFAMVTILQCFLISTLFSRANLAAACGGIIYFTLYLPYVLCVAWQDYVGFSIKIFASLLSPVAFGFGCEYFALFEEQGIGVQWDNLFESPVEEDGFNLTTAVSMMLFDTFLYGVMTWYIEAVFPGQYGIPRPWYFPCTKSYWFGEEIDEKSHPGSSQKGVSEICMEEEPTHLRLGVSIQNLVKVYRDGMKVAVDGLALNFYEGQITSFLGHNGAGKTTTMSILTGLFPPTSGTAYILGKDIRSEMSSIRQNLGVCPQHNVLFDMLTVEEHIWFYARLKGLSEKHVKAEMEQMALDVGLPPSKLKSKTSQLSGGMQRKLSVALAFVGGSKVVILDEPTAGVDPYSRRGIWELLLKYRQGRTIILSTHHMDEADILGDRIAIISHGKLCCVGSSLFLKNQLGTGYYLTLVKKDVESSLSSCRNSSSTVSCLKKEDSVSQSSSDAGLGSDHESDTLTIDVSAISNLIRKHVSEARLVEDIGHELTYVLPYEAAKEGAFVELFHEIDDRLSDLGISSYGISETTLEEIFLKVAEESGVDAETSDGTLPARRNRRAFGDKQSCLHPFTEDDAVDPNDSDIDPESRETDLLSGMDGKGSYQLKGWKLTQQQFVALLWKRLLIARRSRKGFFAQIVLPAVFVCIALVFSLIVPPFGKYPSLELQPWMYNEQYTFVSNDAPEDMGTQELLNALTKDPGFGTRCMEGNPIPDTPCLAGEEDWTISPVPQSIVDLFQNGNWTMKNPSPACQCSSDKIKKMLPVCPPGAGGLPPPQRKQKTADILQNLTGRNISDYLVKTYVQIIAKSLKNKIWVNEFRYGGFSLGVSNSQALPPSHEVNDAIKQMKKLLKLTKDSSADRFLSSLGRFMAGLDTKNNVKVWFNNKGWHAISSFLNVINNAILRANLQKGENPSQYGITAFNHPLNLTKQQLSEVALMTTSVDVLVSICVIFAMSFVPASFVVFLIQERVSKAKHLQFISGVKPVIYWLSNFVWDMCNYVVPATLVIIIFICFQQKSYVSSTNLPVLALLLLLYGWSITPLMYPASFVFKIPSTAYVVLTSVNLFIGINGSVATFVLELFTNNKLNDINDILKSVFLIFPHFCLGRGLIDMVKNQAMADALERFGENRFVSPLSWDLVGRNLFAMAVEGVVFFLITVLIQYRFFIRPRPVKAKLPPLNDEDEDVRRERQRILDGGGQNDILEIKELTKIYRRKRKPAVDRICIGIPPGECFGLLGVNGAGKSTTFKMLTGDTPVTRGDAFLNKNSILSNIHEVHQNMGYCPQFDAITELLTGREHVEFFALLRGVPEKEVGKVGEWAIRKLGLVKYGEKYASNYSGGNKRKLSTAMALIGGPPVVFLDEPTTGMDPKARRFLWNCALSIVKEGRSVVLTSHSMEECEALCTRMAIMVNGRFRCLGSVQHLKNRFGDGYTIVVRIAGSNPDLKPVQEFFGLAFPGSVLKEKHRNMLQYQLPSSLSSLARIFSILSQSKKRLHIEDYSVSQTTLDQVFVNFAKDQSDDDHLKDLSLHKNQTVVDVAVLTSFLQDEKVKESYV
Procedure: In some embodiments, the stabilization of ABCA is measured by direct measurement of ABCA (e.g., ABCA protein, or nucleic acid) using a cell based assay. Cell based assays can be performed in any cells in which ABCA is expressed (e.g., J774 macrophages), including cells which have been transfected with ABCA (e.g. HeLa cells). Any cell type can be used. For example, J774 macrophages can be used to assess relative ABCA1 protein levels in the presence and absence of polypeptides of the invention. The cells are first contacted with a compound that will induce ABCA (e.g., cAMP or a cAMP analogue such as, 8-bromo-cAMP) to upregulate ABCA (e.g., ABCA1) expression, then exposed to […] polypeptides of the invention in the absence of the cAMP stimulus to evaluate whether ABCA1 protein was stabilized or degraded. Relative levels of ABCA1 protein can be assessed using any means known in the art including, e.g., immunoblot analysis of cell membranes (Oram et al., J. Biol. Chem., 278:52379-52385 (2003)) or hybridization of nucleic acid probes to ABCA mRNA.
(FIG. 29). J774 macrophages were used for experiments. Panel A—Cells were labeled (48 h) with 3H cholesterol and treated with (right bars) and without (left bars) a cAMP analog to modulate ABCA1 expression. […]

Q: For “apoA-I: full-length native apolipoprotein A-I, lipid-free”, which “ABCA1 protein level (stabilization)” value is on record?
A: Its value is “maintained at high-levels”.
